Results on 35 compounds are retold here after ChEMBL document CHEMBL1201862, “PubChem BioAssay data set” (2004).

Some test systems named below: T47D; DLD-1; KM-20L2; LXFL 529; SNB-78; RXF 631; HOP-18; MDA-N; XF498.
Common to all, as to test: NCI tumour cell line growth inhibition, 48 h

The structures appear in SMILES notation.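 48-hour exposure; five concentrations; linearly interpolated endpoints. Abbreviation: GI50, concentration required for 50% inhibition of growth.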 Activity calls are given as the source filed them. No stated cut-off is given here; in the data, active = GI50 up to about 1.1 µM and inactive = higher.

For `CCN1C(=O)C(=Cc2ccc(-c3ccccc3)cc2)C(=O)N(CC)C1=S`, the GI50 with T47D is > 100 µM (inactive).

As for `CC(=O)OC1=C2CC3(C)OC(=O)CC(C)(C)C3=CC=C2C=C(C(C)C)C1=O` (stereo not drawn), the GI50 is 0.203 µM (active) in the assay with DLD-1; 1.62 µM (inactive) with KM-20L2; 0.157 µM (active) in the assay with LXFL 529; 0.282 µM (active) in the assay on SNB-78; 0.723 µM (active) with RXF 631; 1.16 µM (inactive) with HOP-18.

For `CC(=O)OC/C=C\Cn1ncc(=O)[nH]c1=O`, the GI50 with T47D is 22.1 µM (inactive); in the assay on MDA-N, 14.9 µM (inactive).

For the compound `O=c1[nH]c(-c2ccccc2)nc2cc([N+](=O)[O-])c(/C(Cl)=C/c3ccccc3)cc12`, the GI50 in the assay on KM-20L2 is 33.7 µM (inactive); in the assay with LXFL 529, 16.4 µM (inactive); in the assay with SNB-78 it was 35 µM (inactive).

For the compound `C[Si](C)(C)OC1(C#N)c2ccccc2CCCC12CCCC2` (stereo not drawn), the GI50 is 24.7 µM (inactive) in the assay with T47D and 46 µM (inactive) with MDA-N.

As to `COC(=O)[C@@H](NC(=O)[C@H](N)Cc1ccc(N(CCCl)CCCl)cc1)C(C)C`, the GI50 in the assay on T47D was 2.86 µM (inactive); in the assay on MDA-N, 23.3 µM (inactive).

Regarding `CN(N)c1nc(N)c(C#N)c(C#N)c1C#N`, the GI50 with T47D and with MDA-N was > 10 µM (inactive) in each case.

`COc1ccc(/C(Cl)=C(\C=O)c2ccc(OC)cc2)cc1`: the GI50 is 33.2 µM (inactive) in the assay with DLD-1; > 100 µM (inactive) in the assay on KM-20L2; > 100 µM (inactive) with LXFL 529; > 100 µM (inactive) in the assay with SNB-78; 58.3 µM (inactive) with RXF 631; 63.8 µM (inactive) in the assay with HOP-18.

`CC1(C)CC[C@]2(C)CC[C@]3(C)C(=CC[C@@H]4[C@@]5(C)CCC(=O)C(C)(C)[C@@H]5[C@H](O)C[C@]43C)[C@@H]2C1`: the figures for the GI50 with T47D and in the assay with MDA-N were 17.3 µM (inactive) and 15.6 µM (inactive), respectively.

With `N[C@@H](CSCSC[C@H](N)C(=O)O)C(=O)O`, the GI50 in the assay on DLD-1 was > 225 µM (inactive); with KM-20L2, > 164 µM (inactive); with SNB-78, 126 µM (inactive); with HOP-18, > 225 µM (inactive); with XF498, > 225 µM (inactive).

Turning to `COc1cccc(NC(=O)CC(=O)n2nc(-c3ccccc3)c(/N=N/c3ccc(Cl)cc3)c2-c2ccccc2)c1`, the GI50 is 13.9 µM (inactive) in the assay with T47D and 38.8 µM (inactive) in the assay on MDA-N.

Regarding `CCc1ccc(Nc2cc(=O)[nH]c(=S)n2C)cc1`, the GI50 in the assay with DLD-1, in the assay on KM-20L2, with LXFL 529, in the assay on SNB-78, in the assay on HOP-18 and in the assay with XF498 was > 100 µM (inactive) each time.

For `O=S(=O)(O)c1ccc2cccc(/N=N\c3c(O)ccc4ccccc34)c2c1`, the GI50 in the assay on T47D and in the assay with MDA-N was > 100 µM (inactive) each time.

For the compound `Nc1n[nH]c(CCCCCCCc2nnc(N)[nH]2)n1`, the GI50 in the assay with DLD-1, in the assay on LXFL 529 and in the assay on SNB-78 was > 100 µM (inactive) throughout.

Regarding `COc1ccc(/C=C2\CC3C4CC=C5C[C@@H](O)CC[C@]5(C)C4CC[C@]3(C)\C2=N\O)cc1OC` (stereo partly drawn), the GI50 in the assay on T47D was 3.35 µM (inactive); with MDA-N, 14.1 µM (inactive).

Take `CSCC(CO)NC(=O)/C=C/c1c(C)[nH]c(=O)[nH]c1=O` (stereo not drawn): the GI50 in the assay with DLD-1 was 512 µM (inactive); in the assay with KM-20L2, 415 µM (inactive); in the assay on SNB-78, > 853 µM (inactive); with HOP-18 it was > 875 µM (inactive); in the assay on XF498, 311 µM (inactive).

As to `Nc1cc(S(=O)(=O)O)cc2cc(S(=O)(=O)O)c(/N=N/c3ccc(-c4ccc(/N=N/c5c(S(=O)(=O)O)cc6cc(S(=O)(=O)O)cc(N)c6c5O)cc4)cc3)c(O)c12`, the GI50 in the assay with DLD-1, in the assay on KM-20L2, in the assay on SNB-78, in the assay on HOP-18 and in the assay on XF498 was > 100 µM (inactive) in each case.

For the compound `O=[N+]([O-])c1ccc(C2=Nc3ccccc3SC(c3ccccc3)C2)cc1` (stereo not drawn), the GI50 was 18.9 µM (inactive) with DLD-1; 17.6 µM (inactive) with KM-20L2; 17.8 µM (inactive) in the assay on LXFL 529; 23.6 µM (inactive) in the assay on SNB-78; 17.5 µM (inactive) with XF498.

On to `S=C1SC(=N\c2ccccc2)/C(=N/c2ccccc2)N1c1ccccc1`, for which the GI50 in the assay with T47D and with MDA-N was > 100 µM (inactive) each time.

With `O=C(Nc1ccccc1Br)c1cccc([N+](=O)[O-])c1O`, the GI50 was 4.32 µM (inactive) with DLD-1; 4.09 µM (inactive) in the assay on KM-20L2; 3.15 µM (inactive) in the assay on LXFL 529; 5.09 µM (inactive) with SNB-78; 17.7 µM (inactive) in the assay on RXF 631; 1.66 µM (inactive) in the assay on HOP-18.

As for `CC1OC(O)CC(OC(=O)c2ccccc2)C1OC(=O)c1ccccc1` (stereo not drawn), the GI50 with DLD-1 was 14.3 µM (inactive); in the assay on KM-20L2 it was 66.2 µM (inactive); in the assay on LXFL 529, 16.2 µM (inactive); with HOP-18, 26.3 µM (inactive); in the assay on XF498 it was 19.9 µM (inactive).

With `CC1(C)[C@@H]2C[C@H]1C(Cc1ccccc1C[C@H]1c3cc(-c4ccccn4)ncc3[C@H]3C[C@@H]1C3(C)C)c1cc(-c3ccccn3)ncc12` (stereo partly drawn), the figures for the GI50 in the assay with T47D and in the assay on MDA-N were 0.294 µM (active) and 0.578 µM (active), respectively.

Turning to `Nc1cc2[nH]c(=O)c3cc(Cl)ccc3c2cc1Cl`, the GI50 with T47D is 12.3 µM (inactive).

In the case of `CCOC(=O)/C=C1/Oc2ccccc2C1(C)O` (stereo not drawn), the GI50 with DLD-1, with KM-20L2, in the assay with LXFL 529, in the assay on SNB-78 and with HOP-18 was > 100 µM (inactive) each time.

As for `O=CCCn1[nH]c(=O)ccc1=O`, the GI50 in the assay on DLD-1, in the assay on KM-20L2 and with SNB-78 was > 100 µM (inactive) in each case.

In the case of `N#CC(C#N)=C1C(=O)NC(N)=C1C#N`, the GI50 in the assay with T47D and in the assay with MDA-N was > 100 µM (inactive) each time.

Turning to `COC(=O)C1(Cc2ccccc2)Cc2cc3c(cc2C1)CCC3`, the GI50 is 18.2 µM (inactive) in the assay with T47D and 16 µM (inactive) in the assay on MDA-N.

As for `COc1ccc(N[S+]([O-])c2ccc(-c3ccccc3)cc2)cc1` (stereo not drawn), the GI50 in the assay on MDA-N was 97.7 µM (inactive).

For `COc1cc2c(cc1OC)C(=O)/C(=C/c1cc(C)cc(C)c1)C2`, the GI50 in the assay on T47D was 0.883 µM (active); in the assay on MDA-N, < 0.0156 µM (active).

With `C/C(=N\O)C1CC(CC(=O)O)C1(C)C` (stereo not drawn), the GI50 in the assay on T47D and in the assay on MDA-N was > 100 µM (inactive) each time.

For the compound `O=C(O)C(Cc1ccc(O)cn1)NC(=O)C(F)(F)F` (stereo not drawn), the GI50 in the assay on MDA-N was > 100 µM (inactive).

As to `OC1COC2CC(Nc3ccccn3)OC12` (stereo not drawn), the GI50 with T47D and in the assay with MDA-N was > 100 µM (inactive) each time.

In the case of `CCOC(=O)NC(=O)c1cn(CC(=O)NCC(=O)NCC(=O)N2CCN(CCn3c(C)nc(C(N)=O)c3N)CC2)c(=O)[nH]c1=O`, the GI50 with DLD-1, in the assay with KM-20L2, with LXFL 529, in the assay with SNB-78, in the assay on RXF 631 and with HOP-18 was > 100 µM (inactive) each time. For the same compound, the GI50 with XF498 is > 100 µM (inactive).

Regarding `CC(=O)/N=C1/N(/C=C2\C(=O)Oc3ccccc3C2=O)C(=O)/C(=C/c2ccc(OC(C)=O)cc2)N1C`, the GI50 in the assay with T47D and with MDA-N was > 100 µM (inactive) throughout.

On to `CC(C)=C1C2CC3(C)CCC2(C)CCC13.CC1=CCC2C3(C)CCC2(C(C)C)C1C3` (stereo not drawn), for which the GI50 with T47D was 36.7 µM (inactive); in the assay on MDA-N, 25.5 µM (inactive).
